Laboratory results taken from patent US20250311722A1, “IMPROVED BIOCIDE” (Purgos ApS, priority 2022, published 2025).
“And” between values parts separate entries of the source, which are not always exact repeats. Identical values can stand only once.

What was measured:
Assay in all cases: Minimal inhibitory concentration (MIC)
Type in all cases: cell-based
Bacillus cereus ISI 842 = tested on: Bacillus cereus ISI 842
Procedure: (§1) Minimum inhibitory concentrations (MICs) are defined as the lowest concentration of an antimicrobial that will inhibit the visible growth of a microorganism after a standardized incubation. In the present study, MIC assay was performed by pipetting robot. The principle is that an indicator microorganism at a defined cell density is cultured with a range of concentrations of the test compound, one concentration pr, well in a row on the microtiter plate. For bacteria and yeasts the minimal inhibitory concentration was detected as no increase of optical density (OD), for moulds microtiter plates were read visually. Each indicator organism is tested in duplicate and the MIC is calculated as the average of the two determinations. The tested concentrations of the antimicrobial substances were 2-fold dilutions from 5%. All indicator organisms (see Table 2.) were pre-cultivated in a suitable growth medium and diluted in the same medium to give a final concentration in the assay of ˜1×10^3 cfu/ml. The microtiter plates were incubated under specific incubation conditions (see Table III). [table]

[1] = tested on: Debaryomyces hansenii ISI 12
Procedure: as §1

[2] = tested on: Lactobacillus brevis ISI 2269
Procedure: as §1

[3] = tested on: Listeria monocytogenes ISI 22
Procedure: as §1

[4] = tested on: Pseudomonas aeruginosa ISI 1462
Procedure: as §1

CCCCN(CCO)CCO [NBDA, N-butyldiethanolamine]
MIC (%) (Bacillus cereus ISI 842): 1.25%
MIC data (optical density) (Bacillus cereus ISI 842; 0.02% NBDA): 0.797 and 0.933
MIC data (optical density) (Bacillus cereus ISI 842; 0.04% NBDA): 0.953 and 0.926
MIC data (optical density) (Bacillus cereus ISI 842; 0.08% NBDA): 0.880 and 0.764
MIC data (optical density) (Bacillus cereus ISI 842; 0.16% NBDA): 0.716 and 0.833
MIC data (optical density) (Bacillus cereus ISI 842; 0.31% NBDA): 0.811 and 0.739
MIC data (optical density) (Bacillus cereus ISI 842; 0.63% NBDA): 0.664 and 0.824
MIC data (optical density) (Bacillus cereus ISI 842; 1.25% NBDA): 0.108 and 0.143
MIC data (optical density) (Bacillus cereus ISI 842; 2.50% NBDA): 0.100 and 0.145
MIC data (optical density) (Bacillus cereus ISI 842; 5.00% NBDA): 0.087 and 0.120
MIC (%) [1]: 1.25%
MIC data (optical density) ([1]; 0.02% NBDA): 1.027 and 1.215
MIC data (optical density) ([1]; 0.04% NBDA): 0.964 and 1.224
MIC data (optical density) ([1]; 0.08% NBDA): 0.974 and 1.114
MIC data (optical density) ([1]; 0.16% NBDA): 0.975 and 1.145
MIC data (optical density) ([1]; 0.31% NBDA): 0.877 and 0.973
MIC data (optical density) ([1]; 0.63% NBDA): 0.619 and 0.582
MIC data (optical density) ([1]; 1.25% NBDA): 0.047
MIC data (optical density) ([1]; 2.50% NBDA): 0.045 and 0.046
MIC data (optical density) ([1]; 5.00% NBDA): 0.044 and 0.043
MIC (%) [2]: 0.16%
MIC data (optical density) ([2]; 0.02% NBDA): 0.509 and 0.458
MIC data (optical density) ([2]; 0.04% NBDA): 0.468 and 0.485
MIC data (optical density) ([2]; 0.08% NBDA): 0.465 and 0.586
MIC data (optical density) ([2]; 0.16% NBDA): 0.054 and 0.057
MIC data (optical density) ([2]; 0.31% NBDA): 0.049 and 0.048
MIC data (optical density) ([2]; 0.63% NBDA): 0.047 and 0.046
MIC data (optical density) ([2]; 1.25% NBDA): 0.047 and 0.045
MIC data (optical density) ([2]; 2.50% NBDA): 0.046 and 0.049
MIC data (optical density) ([2]; 5.00% NBDA): 0.043 and 0.040
MIC (%) [3]: 1.25%
MIC data (optical density) ([3]; 0.02% NBDA): 1.182 and 1.216
MIC data (optical density) ([3]; 0.04% NBDA): 1.184 and 1.216
MIC data (optical density) ([3]; 0.08% NBDA): 1.165 and 1.119
MIC data (optical density) ([3]; 0.16% NBDA): 1.074 and 0.574
MIC data (optical density) ([3]; 0.31% NBDA): 1.027 and 0.645
MIC data (optical density) ([3]; 0.63% NBDA): 0.938 and 0.759
MIC data (optical density) ([3]; 1.25% NBDA): 0.047 and 0.048
MIC data (optical density) ([3]; 2.50% NBDA): 0.046 and 0.056
MIC data (optical density) ([3]; 5.00% NBDA): 0.045 and 0.056
MIC (%) [4]: 0.63%
MIC data (optical density) ([4]; 0.02% NBDA): 1.725 and 1.921
MIC data (optical density) ([4]; 0.04% NBDA): 1.894 and 1.661
MIC data (optical density) ([4]; 0.08% NBDA): 1.938 and 1.871
MIC data (optical density) ([4]; 0.16% NBDA): 1.888 and 1.911
MIC data (optical density) ([4]; 0.31% NBDA): 1.668 and 1.319
MIC data (optical density) ([4]; 0.63% NBDA): 0.047 and 0.044
MIC data (optical density) ([4]; 1.25% NBDA): 0.045 and 0.043
MIC data (optical density) ([4]; 2.50% NBDA): 0.046 and 0.047
MIC data (optical density) ([4]; 5.00% NBDA): 0.045
